Results published in ChEMBL document CHEMBL1201862, “PubChem BioAssay data set” (2004).
Active and inactive are the calls of the source.

Columns and labels:
[1] = NIH-3T3 fibroblast cytotoxicity, dose response, cytotoxicity control, cell-based, fluorescence, Alamar Blue, secondary assay (AID 2327); assay type: functional;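 further: NIH-3T3 mouse fibroblasts cultured with fluconazole at 8 µg/mL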
[2] = molecular target: T1, Delta-type opioid receptor (Homo sapiens, UniProt P41143); experiment: HTS Image-Based Screen for Antagonists of the DOR Receptor. [Related pubchem assays (depositor defined):AID1777, AID1785, AID1786, AID2133]; assay type: functional
T1 sequence (P41143 whole entry): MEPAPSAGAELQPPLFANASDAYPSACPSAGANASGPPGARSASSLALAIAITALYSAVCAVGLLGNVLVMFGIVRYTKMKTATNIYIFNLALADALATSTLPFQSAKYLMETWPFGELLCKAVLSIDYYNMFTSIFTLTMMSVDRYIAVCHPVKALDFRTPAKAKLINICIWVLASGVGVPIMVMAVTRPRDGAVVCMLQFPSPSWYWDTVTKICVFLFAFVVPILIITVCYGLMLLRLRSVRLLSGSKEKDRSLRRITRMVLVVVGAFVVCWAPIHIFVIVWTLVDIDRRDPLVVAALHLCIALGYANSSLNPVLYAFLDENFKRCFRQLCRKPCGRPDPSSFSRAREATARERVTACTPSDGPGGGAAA

[3] = molecular target: T2, Protein RecA (Mycobacterium tuberculosis, UniProt P9WHJ3); experiment: Fluorescence Cell-Free Homogeneous Dose Retest to Identify Inhibitors of RecA-Intein Splicing Activity. [Related pubchem assays (depositor defined):AID2097, AID2223, AID489010, AID492950]; assay type: functional
T2 sequence (P9WHJ3 whole entry): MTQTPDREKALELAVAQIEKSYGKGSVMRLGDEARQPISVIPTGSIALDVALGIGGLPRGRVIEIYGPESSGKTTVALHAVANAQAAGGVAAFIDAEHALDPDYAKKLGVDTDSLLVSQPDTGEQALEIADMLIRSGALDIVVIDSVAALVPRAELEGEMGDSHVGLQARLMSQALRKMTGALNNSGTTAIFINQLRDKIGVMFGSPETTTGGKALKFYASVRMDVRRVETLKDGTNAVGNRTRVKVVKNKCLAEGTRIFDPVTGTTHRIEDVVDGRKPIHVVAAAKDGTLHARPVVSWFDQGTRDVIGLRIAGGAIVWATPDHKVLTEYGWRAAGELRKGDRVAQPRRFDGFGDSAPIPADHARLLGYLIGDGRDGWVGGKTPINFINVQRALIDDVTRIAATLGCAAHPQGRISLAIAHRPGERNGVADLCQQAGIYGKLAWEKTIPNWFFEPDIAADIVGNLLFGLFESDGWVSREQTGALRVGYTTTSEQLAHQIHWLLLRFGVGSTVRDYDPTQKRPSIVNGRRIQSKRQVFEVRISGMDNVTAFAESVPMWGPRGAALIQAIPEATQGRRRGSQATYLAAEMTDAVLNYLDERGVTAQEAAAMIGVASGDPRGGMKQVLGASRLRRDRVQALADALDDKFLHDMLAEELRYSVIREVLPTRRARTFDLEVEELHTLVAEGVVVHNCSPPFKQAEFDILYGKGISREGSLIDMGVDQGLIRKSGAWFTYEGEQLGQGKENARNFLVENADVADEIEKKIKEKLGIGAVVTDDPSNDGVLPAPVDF

[4] = tested on: HeLa; experiment: Cytotoxicity counterscreen assay for transcriptional activators of heat shock protein 70 (Hsp70). [Related pubchem assays: 1203, 1252 ]; assay type: functional; conditions: Homo sapiens;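 further: cells exposed to compound for 16 hours before readout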
[5] = molecular target: T3, Kappa-type opioid receptor (Homo sapiens, UniProt P41145); assay type: functional
T3 sequence (P41145 whole entry): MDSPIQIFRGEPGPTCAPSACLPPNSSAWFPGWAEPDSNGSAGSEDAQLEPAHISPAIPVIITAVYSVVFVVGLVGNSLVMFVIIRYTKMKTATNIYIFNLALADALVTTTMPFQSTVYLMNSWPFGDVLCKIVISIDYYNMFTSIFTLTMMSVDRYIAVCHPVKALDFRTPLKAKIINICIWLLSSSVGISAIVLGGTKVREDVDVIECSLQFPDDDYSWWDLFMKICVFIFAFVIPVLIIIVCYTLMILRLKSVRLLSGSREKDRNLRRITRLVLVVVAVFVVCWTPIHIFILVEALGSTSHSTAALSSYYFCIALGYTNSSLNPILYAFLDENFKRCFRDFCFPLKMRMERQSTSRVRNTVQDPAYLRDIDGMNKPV

[6] = molecular target: G-protein coupled receptor 55 (Homo sapiens, UniProt Q9Y2T6); experiment: inhibition of LPI-stimulated GPR55 beta-arrestin translocation – imaging, U2OS, beta-arrestin-GFP, LPI agonist, primary screen (AID 2013); assay type: functional;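 further: antagonist potency measured as reduced agonist-driven arrestin aggregation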
Chain of G-protein coupled receptor 55 (Q9Y2T6 whole entry): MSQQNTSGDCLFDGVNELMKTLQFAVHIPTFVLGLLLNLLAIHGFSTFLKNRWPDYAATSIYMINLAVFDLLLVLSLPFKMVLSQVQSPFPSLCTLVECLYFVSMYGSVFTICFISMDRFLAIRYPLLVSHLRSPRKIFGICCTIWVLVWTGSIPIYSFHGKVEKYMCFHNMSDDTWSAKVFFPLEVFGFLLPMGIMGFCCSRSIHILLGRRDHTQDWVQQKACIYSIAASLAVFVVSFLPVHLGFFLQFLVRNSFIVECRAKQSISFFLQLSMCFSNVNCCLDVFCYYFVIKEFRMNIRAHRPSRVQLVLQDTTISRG

[7] = molecular target: T3, Kappa-type opioid receptor; assay type: functional; remark: listed apart in the source
[8] = fluconazole-exposed Candida albicans growth modulators – fluorescence, retest, confirmation (AID 2467); assay type: functional, cell-based
[9] = molecular target: T1, Delta-type opioid receptor; experiment: HTS Image-Based Screen for Agonists of the DOR Receptor. [Related pubchem assays (depositor defined):AID1777, AID1786, AID2133]; assay type: functional
[10] = molecular target: T4, Replicative DNA helicase DnaB (Mycobacterium tuberculosis, UniProt P9WMR3); experiment: DnaB intein splicing inhibitors, dose response, biochemical, cell-free fluorescence (AID 449749); assay type: functional
T4 sequence (P9WMR3 whole entry): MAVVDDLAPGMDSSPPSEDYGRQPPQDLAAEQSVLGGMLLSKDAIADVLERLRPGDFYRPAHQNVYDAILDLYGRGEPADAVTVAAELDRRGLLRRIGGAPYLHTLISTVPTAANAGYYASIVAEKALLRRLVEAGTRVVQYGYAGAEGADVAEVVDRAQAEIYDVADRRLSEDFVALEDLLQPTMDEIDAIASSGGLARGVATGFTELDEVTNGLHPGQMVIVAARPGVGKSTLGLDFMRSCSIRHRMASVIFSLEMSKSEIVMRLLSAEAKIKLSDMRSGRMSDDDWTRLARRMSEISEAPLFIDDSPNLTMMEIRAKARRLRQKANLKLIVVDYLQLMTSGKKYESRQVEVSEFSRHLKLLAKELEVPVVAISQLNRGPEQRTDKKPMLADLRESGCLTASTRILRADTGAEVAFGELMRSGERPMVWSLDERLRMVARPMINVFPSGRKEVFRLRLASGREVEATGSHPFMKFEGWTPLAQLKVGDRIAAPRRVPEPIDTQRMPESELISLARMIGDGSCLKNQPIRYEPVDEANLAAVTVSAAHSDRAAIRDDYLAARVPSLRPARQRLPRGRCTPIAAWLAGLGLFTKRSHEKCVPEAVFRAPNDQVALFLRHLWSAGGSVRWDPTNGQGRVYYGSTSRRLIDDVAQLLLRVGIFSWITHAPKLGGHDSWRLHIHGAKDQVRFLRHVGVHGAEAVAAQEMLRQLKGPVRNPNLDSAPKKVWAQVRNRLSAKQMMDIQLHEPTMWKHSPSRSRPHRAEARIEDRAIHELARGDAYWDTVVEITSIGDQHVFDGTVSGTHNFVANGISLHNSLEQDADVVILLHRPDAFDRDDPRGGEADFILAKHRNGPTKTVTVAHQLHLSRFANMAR

[11] = molecular target: Beta-galactosidase (Escherichia coli, UniProt Q8VNN2); assay type: functional
Chain of Beta-galactosidase (Q8VNN2 whole entry): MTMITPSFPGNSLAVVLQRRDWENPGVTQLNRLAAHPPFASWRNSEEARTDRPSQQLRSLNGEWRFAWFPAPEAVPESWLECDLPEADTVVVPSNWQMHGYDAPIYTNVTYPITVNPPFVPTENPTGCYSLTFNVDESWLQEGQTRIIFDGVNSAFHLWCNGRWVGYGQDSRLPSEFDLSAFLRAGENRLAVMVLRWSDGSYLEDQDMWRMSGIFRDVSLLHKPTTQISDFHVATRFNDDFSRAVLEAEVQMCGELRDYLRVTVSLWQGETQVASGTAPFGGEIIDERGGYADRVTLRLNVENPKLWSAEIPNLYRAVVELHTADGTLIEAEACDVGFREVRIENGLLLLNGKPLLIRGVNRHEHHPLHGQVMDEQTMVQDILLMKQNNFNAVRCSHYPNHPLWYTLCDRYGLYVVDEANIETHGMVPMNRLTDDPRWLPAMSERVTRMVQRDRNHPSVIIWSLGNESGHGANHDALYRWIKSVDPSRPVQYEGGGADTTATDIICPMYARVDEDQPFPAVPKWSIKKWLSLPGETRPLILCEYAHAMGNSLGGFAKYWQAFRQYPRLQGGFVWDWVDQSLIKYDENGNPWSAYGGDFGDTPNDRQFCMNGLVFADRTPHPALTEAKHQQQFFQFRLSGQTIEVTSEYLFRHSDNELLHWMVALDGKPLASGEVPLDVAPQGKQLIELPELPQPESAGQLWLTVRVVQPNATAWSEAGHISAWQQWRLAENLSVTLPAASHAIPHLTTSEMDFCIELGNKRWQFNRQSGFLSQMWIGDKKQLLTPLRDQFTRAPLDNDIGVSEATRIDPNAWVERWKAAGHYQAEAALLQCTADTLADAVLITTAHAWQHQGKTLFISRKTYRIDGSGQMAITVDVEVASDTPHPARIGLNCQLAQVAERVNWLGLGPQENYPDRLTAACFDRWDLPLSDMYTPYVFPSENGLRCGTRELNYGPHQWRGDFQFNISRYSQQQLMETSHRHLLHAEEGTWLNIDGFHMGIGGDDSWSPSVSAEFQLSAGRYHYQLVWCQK

[12] = molecular target: Beta Lactamase (Pseudomonas aeruginosa, UniProt Q932Y6); experiment: BLA reporter interference, concentration series – BLA reporter cells, FRET fluorescence, artefact control for TLR9-MyD88 binding inhibitor project, dose response (AID 588341); assay type: cell-based;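 further: cell based assay in CHO-K1 cells stably expressing beta-lactamase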
Chain of Beta Lactamase (Q932Y6 whole entry, the tested form may be a part): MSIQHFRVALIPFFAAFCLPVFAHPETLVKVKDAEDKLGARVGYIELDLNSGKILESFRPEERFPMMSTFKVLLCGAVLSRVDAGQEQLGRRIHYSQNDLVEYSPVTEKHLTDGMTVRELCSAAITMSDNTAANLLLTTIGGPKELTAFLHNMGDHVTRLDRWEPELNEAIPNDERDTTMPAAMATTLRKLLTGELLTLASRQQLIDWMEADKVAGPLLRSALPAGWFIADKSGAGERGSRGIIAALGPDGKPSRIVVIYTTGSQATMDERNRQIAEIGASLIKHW

[13] = tested on: CHO; experiment: CHO cell viability loss, potency – luminescence, cytotoxicity control for TLR9-MyD88 binding inhibitor project, dose response (AID 588339); assay type: functional, cell-based, hamster; conditions: Cricetulus griseus;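 further: CHO cells stably coexpressing TLR9 and MyD88 fusions from primary screen; compound exposure lasted 48 hours before viability readout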
[14] = molecular target: Mu-type opioid receptor (Homo sapiens, UniProt P35372); experiment: HTS Image-Based Screen for Agonists of the MOR Receptor. [Related pubchem assays (depositor defined):AID1777, AID1785, AID1786, AID2133]; assay type: functional;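 further: imaging of beta-arrestin GFP recruitment into spots after receptor activation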
Chain of Mu-type opioid receptor (P35372 whole entry): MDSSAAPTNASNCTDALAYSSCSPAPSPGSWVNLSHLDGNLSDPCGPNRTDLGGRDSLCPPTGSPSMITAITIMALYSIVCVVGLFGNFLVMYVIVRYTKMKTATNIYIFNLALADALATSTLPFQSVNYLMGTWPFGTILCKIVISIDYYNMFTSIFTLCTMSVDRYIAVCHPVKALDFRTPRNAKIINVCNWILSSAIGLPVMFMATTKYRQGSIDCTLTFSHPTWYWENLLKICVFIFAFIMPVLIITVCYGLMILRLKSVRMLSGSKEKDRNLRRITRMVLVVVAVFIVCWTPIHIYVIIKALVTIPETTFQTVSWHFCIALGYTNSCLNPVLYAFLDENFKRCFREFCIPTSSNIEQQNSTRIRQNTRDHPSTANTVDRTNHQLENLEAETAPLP

[15] = molecular target: T5, Endoribonuclease toxin MazF (Escherichia coli K-12, UniProt P0AE70); experiment: activation of MazEF endoribonuclease cleavage – biochemical, fluorescence, single-stranded RNA substrate, uHTS hits, dose response (AID 588481); assay type: functional
T5 sequence (P0AE70 whole entry): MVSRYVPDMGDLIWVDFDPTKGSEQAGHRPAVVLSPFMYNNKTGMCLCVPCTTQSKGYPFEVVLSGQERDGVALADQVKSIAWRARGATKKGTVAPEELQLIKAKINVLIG

[16] = tested on: MEF; experiment: SAR analysis of small molecule cytotoxicity of MazEF TA System activators in embryonic fibroblast (MEF) cells. [Related pubchem assays (depositor defined):AID504720, AID504743]; assay type: functional; conditions: Mus musculus
[17] = molecular target: T5, Endoribonuclease toxin MazF; experiment: SAR analysis of small molecule activators of the MazEF TA System via a fluorescence-based single-stranded RNase assay counterscreen. [Related pubchem assays (depositor defined):AID504720, AID504743]; assay type: functional
[18] = molecular target: T5, Endoribonuclease toxin MazF; experiment: MazEF toxin-antitoxin RNase activation – biochemical, fluorescence, single-stranded RNA substrate, SAR follow-up (AID 588603); assay type: functional
[19] = molecular target: T5, Endoribonuclease toxin MazF; experiment: substrate-only fluorescence increase artefacts – biochemical, single-stranded RNase substrate, counter-screen for MazEF activator project, dose response (AID 588502); assay type: functional
[20] = molecular target: Galanin receptor type 3 (Homo sapiens, UniProt O60755); experiment: Fluorescence-based cell-based primary high throughput dose response assay to identify antagonists of the Galanin Receptor 3 (GalR3).; assay type: functional
Chain of Galanin receptor type 3 (O60755 whole entry): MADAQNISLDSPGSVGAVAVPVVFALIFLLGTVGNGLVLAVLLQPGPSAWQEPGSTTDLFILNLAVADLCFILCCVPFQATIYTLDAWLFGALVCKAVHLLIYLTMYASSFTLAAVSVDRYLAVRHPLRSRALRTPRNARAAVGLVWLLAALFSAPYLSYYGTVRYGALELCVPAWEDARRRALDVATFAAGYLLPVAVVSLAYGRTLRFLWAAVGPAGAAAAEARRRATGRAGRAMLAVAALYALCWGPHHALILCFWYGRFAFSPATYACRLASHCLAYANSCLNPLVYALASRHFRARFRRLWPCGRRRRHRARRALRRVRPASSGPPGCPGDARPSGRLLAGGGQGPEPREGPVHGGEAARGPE

[21] = tested on: INS1; experiment: INS-1E survival protection against cytokine death – cell-based, luminescence, retest, dose response (AID 449756); assay type: functional; conditions: Rattus norvegicus;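 further: cell death triggered by IL-1 beta plus TNF-alpha plus IFN-gamma mixture; protective hits raise ATP signal compared with cytokine alone wells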
[22] = tested on: BJ; experiment: growth inhibition of engineered Ras-driven BJ cells – cell-based, alamar blue fluorescence, cherrypicked samples, dose response (AID 2631); assay type: functional; conditions: Homo sapiens;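 further: confirmatory dose-response assay in RAS-dependent BJ fibroblasts engineered with TERT, LT and ST, with cytotoxicity read by fluorescence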
[23] = tested on: BJ; experiment: BJ-TERT fibroblast viability loss – cell-based, RAS-independent, luminescence, dose response (AID 1933); assay type: functional; conditions: Homo sapiens
[24] = DRD fibroblast viability loss – cell-based, non-viral oncogenic, luminescence, dose response (AID 1934); assay type: functional; conditions: Homo sapiens
[25] = cells; assay type: functional, cell-based; conditions: HEK-CNG
[26] = tested on: BJ; experiment: BJ-TERT-LT-ST fibroblast viability loss – cell-based, RAS-independent, luminescence, dose response (AID 1935); assay type: functional; conditions: Homo sapiens;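 further: BJ fibroblasts immortalized with TERT plus LT and ST oncogenes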
[27] = tested on: HEK293; experiment: EBV LMP1 TES2 canonical NF-kB signalling blockers – cell-based, HEK293, luciferase, cherry-pick, dose response (AID 588343); assay type: functional; conditions: Homo sapiens
[28] = molecular target: Paired box protein Pax-8 (Homo sapiens, UniProt Q06710); experiment: PAX8 transcriptional activity inhibition in RMG-I – RMG-I cells, luciferase, cherry-pick, dose response (AID 687027); assay type: functional, cell-based;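 further: luciferase reporter driven by Pax8 target thyroperoxidase promoter measured by SteadyGlo luminescence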
Chain of Paired box protein Pax-8 (Q06710 whole entry): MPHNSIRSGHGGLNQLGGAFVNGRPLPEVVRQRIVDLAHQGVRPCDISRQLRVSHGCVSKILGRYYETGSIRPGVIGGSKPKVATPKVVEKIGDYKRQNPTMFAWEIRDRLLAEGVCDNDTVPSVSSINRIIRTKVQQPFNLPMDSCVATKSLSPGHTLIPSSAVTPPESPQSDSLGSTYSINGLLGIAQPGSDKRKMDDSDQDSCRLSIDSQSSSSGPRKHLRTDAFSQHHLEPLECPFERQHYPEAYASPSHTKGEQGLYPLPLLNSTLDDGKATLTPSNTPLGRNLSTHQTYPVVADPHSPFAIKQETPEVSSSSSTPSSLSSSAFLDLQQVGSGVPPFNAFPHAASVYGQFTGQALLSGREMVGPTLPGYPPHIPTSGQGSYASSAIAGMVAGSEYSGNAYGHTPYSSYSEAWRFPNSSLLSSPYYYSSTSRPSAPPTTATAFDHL

[29] = tested on: BJ; experiment: cells; assay type: functional, cell-based; conditions: Homo sapiens
[30] = molecular target: Phospholipase A2 (Homo sapiens, UniProt P04054); assay type: functional;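 further: confirmatory dose-response counterscreen on phospholipase A2, testing hits that came from an ultra-high-throughput screen for ATG4B inhibitors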
Chain of Phospholipase A2 (P04054 whole entry): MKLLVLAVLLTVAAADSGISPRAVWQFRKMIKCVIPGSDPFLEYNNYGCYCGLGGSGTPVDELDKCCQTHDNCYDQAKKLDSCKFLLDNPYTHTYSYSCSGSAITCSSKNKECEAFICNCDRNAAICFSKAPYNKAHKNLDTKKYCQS

[31] = molecular target: Cysteine protease ATG4B (Homo sapiens, UniProt Q9Y4P1); assay type: functional;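 further: Fluorescence-based dose-response confirmation assay measuring inhibition of ATG4B activity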
Chain of Cysteine protease ATG4B (Q9Y4P1 whole entry): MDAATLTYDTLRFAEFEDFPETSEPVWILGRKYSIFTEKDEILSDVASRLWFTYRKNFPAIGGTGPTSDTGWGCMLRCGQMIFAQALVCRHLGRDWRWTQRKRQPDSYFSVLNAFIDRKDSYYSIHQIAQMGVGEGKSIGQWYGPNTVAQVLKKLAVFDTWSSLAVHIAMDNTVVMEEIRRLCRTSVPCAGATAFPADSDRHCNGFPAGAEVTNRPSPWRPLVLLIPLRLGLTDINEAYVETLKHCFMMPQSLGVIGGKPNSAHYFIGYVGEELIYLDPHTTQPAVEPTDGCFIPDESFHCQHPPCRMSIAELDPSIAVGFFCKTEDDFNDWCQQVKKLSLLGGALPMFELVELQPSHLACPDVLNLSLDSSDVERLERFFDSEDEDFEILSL

CNc1cc(Cl)c2nonc2c1[N+](=O)[O-]
active: EC50 [3] 1.77 µM | CC50 [4] > 1.22 µM | IC50 [6] 1.11 µM | IC50 [7] 2.96 µM | EC50 [8] 0.752 µM | AC50 [10] 5.31 µM | IC50 [12] 4.73 µM | IC50 [13] 1.68 µM
inconclusive: EC50 [1] 4.78 µM
8.48 µM: IC50 [5]
inactive: IC50 [2] 10.4 µM | EC50 [9] > 32 µM | EC50 [11] > 31.5 µM | EC50 [14] > 32 µM

CN1C(=O)C(C)(C)c2cc(S(=O)(=O)NCc3ccc(C(=O)NCc4ccco4)cc3)ccc21
inactive: CC50 [16] > 99 µM | EC50 [17] > 99 µM | EC50 [19] 29.2 µM
active: EC50 [15] 7.01 µM | EC50 [18] 3.35 µM

N#CC(C#N)=NNc1ccc(-n2ccc(C(F)(F)F)n2)cc1
> 150 µM (not active): EC50 [26]
inactive: EC50 [22] > 133 µM | EC50 [25] > 29.9 µM
inconclusive: EC50 [23] 13.6 µM | EC50 [24] 18.2 µM
active: IC50 [20] > 1.11 µM | AC50 [21] 5.57 µM | EC50 [3] 2.98 µM | AC50 [27] 3.38 µM | AC50 [10] 2.03 µM | AC50 [28] 3.44 µM | EC50 [29] 11.4 µM

Cc1ccc(-n2c(SCC(=O)N/N=C/C=C/c3ccccc3[N+](=O)[O-])nc3ccccc3c2=O)cc1
active: IC50 [30] 2.53 µM | IC50 [31] 6.42 µM
